Key:
human CYP11B2 = molecular target: T1, human CYP11B2 (Homo sapiens, UniProt P19099); assay: G-402 cellular enzyme assay, human CYP11B2 (aldosterone release, HTRF); assay type: cell-based; details: G-402 cells expressing human CYP11B2; 1 μM Deoxycorticosterone
T1 construct: expressed in transfected cells
T1 sequence (P19099 25-503): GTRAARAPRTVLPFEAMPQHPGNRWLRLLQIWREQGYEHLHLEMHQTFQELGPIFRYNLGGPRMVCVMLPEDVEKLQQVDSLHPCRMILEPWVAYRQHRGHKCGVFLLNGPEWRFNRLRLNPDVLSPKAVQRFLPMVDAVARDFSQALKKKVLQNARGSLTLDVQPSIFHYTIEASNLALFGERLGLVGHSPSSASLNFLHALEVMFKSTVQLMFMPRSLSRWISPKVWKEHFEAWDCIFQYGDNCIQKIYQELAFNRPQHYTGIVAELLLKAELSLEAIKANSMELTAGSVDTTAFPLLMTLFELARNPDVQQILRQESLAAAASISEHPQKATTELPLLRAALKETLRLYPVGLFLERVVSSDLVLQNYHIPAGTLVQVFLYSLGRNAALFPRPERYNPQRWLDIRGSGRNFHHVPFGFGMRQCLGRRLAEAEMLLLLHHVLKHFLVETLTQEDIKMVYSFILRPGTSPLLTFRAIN
From the text: (§1) Herein we identified the use of the G-402 cell line as a host cell to ectopically express (transiently or stably) enzymes of the CYP11 family. Specifically we developed stable G-402 cells expressing ectopically human CYP11B1, human CYP11B2, human CYP11A1, cynmolgus CYP11B1 or cynomolgus CYP11B2 enzyme activity. Importantly the identified cell line G-402 expresses co-factors (adrenodoxin and adrenodoxin reductase) important for the activity of the CYP11 family and no relevant enzyme activity of the CYP11 family (in comparison to H295R cells) was detected in these cells. Therefore the G-402 cell line is uniquely suited as a host cell for the ectopic expression of enzymes from the CYP11 family.
(§2) The expression plasmids contains the ORF for either human/cyno CYP11B1 or CYP11B2 under the control of a suitable promoter (CMV-promoter) and a suitable resistance marker (neomycin). Using standard techniques the expression plasmid is transfected into G-402 cells and these cells are then selected for expressing the given resistance markers. Individual cell-clones are then selected and assessed for displaying the desired enzymatic activity using 11-Deoxycorticosterone (Cyp11B2) or 11-Deoxycortisol (Cyp11B1) as a substrate.
(§3) G-402 cells expressing CYP11 constructs were established as described above and maintained in McCoy's 5a Medium Modified, ATCC Catalog No. 30-2007 containing 10% FCS and 400 μg/ml G418 (Geneticin) at 37° C. under an atmosphere of 5% CO2/95% air.
(§4) Cellular enzyme assays were performed in DMEM/F12 medium containing 2.5% charcoal treated FCS and appropriate concentration of substrate (0.3-10 uM 11-Deoxycorticosterone, 11-Deoxycortisol or Corticosterone). For assaying enzymatic activity, cells were plated onto 96 well plates and incubated for 16 h. An aliquot of the supernatant is then transferred and analyzed for the concentration of the expected product (Aldosterone for CYP11B2; Cortisol for CYP11B1). The concentrations of these steroids can be determined using HTRF assays from CisBio analyzing either Aldosterone or Cortisol.
(§5) Inhibition of the release of produced steroids can be used as a measure of the respective enzyme inhibition by test compounds added during the cellular enzyme assay. The dose dependent inhibition of enzymatic activity by a compound is calculated by means of plotting added inhibitor concentrations (x-axes) vs. measured steroid/product level (y-axes). The inhibition is then calculated by fitting the following 4-parameter sigmoidal function (Morgan-Mercer-Flodin (MMF) model) to the raw data points using the least squares method:
(§6) [formula] wherein, A is the maximum y value, B is the EC50 factor determined using XLFit, C is the minimum y value and D is the slope value.
(§7) EC50 values for compounds claimed herein were tested with the G402-based assay system described. Cyp11B2 enzyme activity was tested in presence of 1 μM Deoxycorticosterone and variable amounts of inhibitors; Cyp11B1 enzyme activity was tested in presence of 1 μM Deoxycortisol and variable amounts of inhibitors.

human CYP11B1 = molecular target: T2, human CYP11B1 (Homo sapiens, UniProt P15538); assay: G-402 cellular enzyme assay, human CYP11B1 (cortisol release, HTRF); assay type: cell-based; details: G-402 cells expressing human CYP11B1; 1 μM Deoxycortisol
T2 construct: expressed in transfected cells
T2 sequence (P15538 25-503): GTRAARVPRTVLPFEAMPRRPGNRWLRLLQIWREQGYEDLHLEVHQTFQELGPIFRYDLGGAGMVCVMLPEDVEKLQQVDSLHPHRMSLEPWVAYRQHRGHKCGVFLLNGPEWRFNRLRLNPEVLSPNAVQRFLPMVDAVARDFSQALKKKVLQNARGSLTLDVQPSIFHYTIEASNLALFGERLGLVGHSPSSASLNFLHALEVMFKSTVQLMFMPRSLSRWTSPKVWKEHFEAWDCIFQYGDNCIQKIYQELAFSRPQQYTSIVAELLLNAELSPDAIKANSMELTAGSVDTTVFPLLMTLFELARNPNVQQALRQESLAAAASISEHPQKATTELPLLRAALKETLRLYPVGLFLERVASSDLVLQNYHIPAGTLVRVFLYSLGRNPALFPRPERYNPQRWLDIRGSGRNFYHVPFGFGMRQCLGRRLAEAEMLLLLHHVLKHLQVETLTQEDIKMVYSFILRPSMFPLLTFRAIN
From the text: as §1, §2, §3, §4, §5, §6, §7

| SMILES | EC50 (human CYP11B2) | EC50 (human CYP11B1) |
| --- | --- | --- |
| CN1C(=O)CCc2cc(-c3cncc(Cn4cc(C(F)(F)F)ccc4=O)c3)ccc21 [Example 15, 1-Methyl-6-[5-(2-oxo-5-trifluoromethyl-2H-pyridin-1-ylmethyl)-pyridin-3-yl]-3,4-dihydro-1H-quinolin-2-one] | 19.6 nM | 680 nM |
| CN1C(=O)CCc2cc(-c3cncc(Cn4c(=O)sc5ccccc54)c3)ccc21 [Example 1, 1-Methyl-6-[5-(2-oxo-benzothiazol-3-ylmethyl)-pyridin-3-yl]-3,4-dihydro-1H-quinolin-2-one] | 1.4 nM | 177 nM |
| CN1C(=O)CCc2cc(-c3cncc(Cn4cccc(F)c4=O)c3)ccc21 [Example 6, 6-[5-(3-Fluoro-2-oxo-2H-pyridin-1-ylmethyl)-pyridin-3-yl]-1-methyl-3,4-dihydro-1H-quinolin-2-one] | 32.7 nM | 4070 nM |
| CN1C(=O)CCc2cc(-c3cncc(Cn4ccsc4=O)c3)ccc21 [Example 3, 1-Methyl-6-[5-(2-oxo-thiazol-3-ylmethyl)-pyridin-3-yl]-3,4-dihydro-1H-quinolin-2-one] | 3.6 nM | 275 nM |
| CN1C(=O)CCc2cc(-c3cncc(Cn4ccccc4=O)c3)ccc21 [Example 10, 1-Methyl-6-[5-(2-oxo-2H-pyridin-1-ylmethyl)-pyridin-3-yl]-3,4-dihydro-1H-quinolin-2-one] | 29 nM | 1230 nM |
| CN1C(=O)CCc2cc(-c3cncc(Cn4ccc(C#N)cc4=O)c3)ccc21 [Example 14, 1-[5-(1-Methyl-2-oxo-1,2,3,4-tetrahydro-quinolin-6-yl)-pyridin-3-ylmethyl]-2-oxo-1,2-dihydro-pyridine-4-carbonitrile] | 8.8 nM | 356 nM |
| Cc1cccc(=O)n1Cc1cncc(-c2ccc3c(c2)CCC(=O)N3C)c1 [Example 7, 1-Methyl-6-[5-(6-methyl-2-oxo-2H-pyridin-1-ylmethyl)-pyridin-3-yl]-3,4-dihydro-1H-quinolin-2-one] | 8.8 nM | 820 nM |
| CN1C(=O)CCc2cc(-c3cncc(Cn4cccc(C(F)(F)F)c4=O)c3)ccc21 [Example 11, 1-Methyl-6-[5-(2-oxo-3-trifluoromethyl-2H-pyridin-1-ylmethyl)-pyridin-3-yl]-3,4-dihydro-1H-quinolin-2-one] | 18.1 nM | 738 nM |
| CN1C(=O)CCc2cc(-c3cncc(Cn4cc(C#N)ccc4=O)c3)ccc21 [Example 16, 1-[5-(1-Methyl-2-oxo-1,2,3,4-tetrahydro-quinolin-6-yl)-pyridin-3-ylmethyl]-6-oxo-1,6-dihydro-pyridine-3-carbonitrile] | 67.3 nM | 2420 nM |
| Cc1nccc(=O)n1Cc1cncc(-c2ccc3c(c2)CCC(=O)N3C)c1 [Example 12, 1-Methyl-6-[5-(2-methyl-6-oxo-6H-pyrimidin-1-ylmethyl)-pyridin-3-yl]-3,4-dihydro-1H-quinolin-2-one] | 7.4 nM | 256 nM |
| CN1C(=O)CCc2cc(-c3cncc(Cn4cc(C(F)(F)F)cc(F)c4=O)c3)ccc21 [Example 5, 6-[5-(3-Fluoro-2-oxo-5-trifluoromethyl-2H-pyridin-1-ylmethyl)-pyridin-3-yl]-1-methyl-3,4-dihydro-1H-quinolin-2-one] | 13.2 nM | 1080 nM |
| CN1C(=O)CCc2cc(-c3cncc(Cn4cccc(Cl)c4=O)c3)ccc21 [Example 4, 6-[5-(3-Chloro-2-oxo-2H-pyridin-1-ylmethyl)-pyridin-3-yl]-1-methyl-3,4-dihydro-1H-quinolin-2-one] | 29.3 nM | 1220 nM |
| CN1C(=O)CCc2cc(-c3cncc(Cn4cc(F)ccc4=O)c3)ccc21 [Example 2, 6-[5-(5-Fluoro-2-oxo-2H-pyridin-1-ylmethyl)-pyridin-3-yl]-1-methyl-3,4-dihydro-1H-quinolin-2-one] | 18.5 nM | 935 nM |

The next lines start with the values.

| EC50 (human CYP11B2) | EC50 (human CYP11B1) | SMILES |
| --- | --- | --- |
| 0.2 nM | 7.1 nM | CN1C(=O)CCc2cc(-c3cncc(Cn4c(Cl)cccc4=O)c3)c(F)cc21 [Example 22, 6-[5-(6-Chloro-2-oxo-2H-pyridin-1-ylmethyl)-pyridin-3-yl]-7-fluoro-1-methyl-3,4-dihydro-1H-quinolin-2-one] |
| 0.5 nM | 23.8 nM | CN1C(=O)CCc2cc(-c3cncc(Cn4cccc(F)c4=O)c3)c(F)cc21 [Example 19, 7-Fluoro-6-[5-(3-fluoro-2-oxo-2H-pyridin-1-ylmethyl)-pyridin-3-yl]-1-methyl-3,4-dihydro-1H-quinolin-2-one] |
| 16.5 nM | 2140 nM | Cc1c(Cn2c(C)cccc2=O)cncc1-c1cc2c(cc1F)N(C)C(=O)CC2 [Example 24, 7-Fluoro-1-methyl-6-[4-methyl-5-(6-methyl-2-oxo-2H-pyridin-1-ylmethyl)-pyridin-3-yl]-3,4-dihydro-1H-quinolin-2-one] |
| 12.5 nM | 3130 nM | Cc1cccc(=O)n1Cc1cncc(-c2cc3c(cc2F)N(C)C(=O)CC3)c1 [Example 23, 7-Fluoro-1-methyl-6-[5-(6-methyl-2-oxo-2H-pyridin-1-ylmethyl)-pyridin-3-yl]-3,4-dihydro-1H-quinolin-2-one] |
| 4.1 nM | 172 nM | CN1C(=O)CCc2cc(-c3cncc(Cn4c(F)cccc4=O)c3)ccc21 [Example 18, 6-[5-(6-Fluoro-2-oxo-2H-pyridin-1-ylmethyl)-pyridin-3-yl]-1-methyl-3,4-dihydro-1H-quinolin-2-one] |
| 1 nM | 44.8 nM | Cc1c(Cn2cccc(F)c2=O)cncc1-c1cc2c(cc1F)N(C)C(=O)CC2 [Example 26, 7-Fluoro-6-[5-(3-fluoro-2-oxo-2H-pyridin-1-ylmethyl)-4-methyl-pyridin-3-yl]-1-methyl-3,4-dihydro-1H-quinolin-2-one] |
| 15.1 nM | 569 nM | CN1C(=O)CCc2cc(-c3cncc(Cn4cc(Cl)ccc4=O)c3)c(F)cc21 [Example 21, 6-[5-(5-Chloro-2-oxo-2H-pyridin-1-ylmethyl)-pyridin-3-yl]-7-fluoro-1-methyl-3,4-dihydro-1H-quinolin-2-one] |
| 2.1 nM | 234 nM | Cc1c(Cn2c(Cl)cccc2=O)cncc1-c1cc2c(cc1F)N(C)C(=O)CC2 [Example 25, 6-[5-(6-Chloro-2-oxo-2H-pyridin-1-ylmethyl)-4-methyl-pyridin-3-yl]-7-fluoro-1-methyl-3,4-dihydro-1H-quinolin-2-one] |
| 1 nM | 91.3 nM | Cc1c(Cn2c(F)cccc2=O)cncc1-c1cc2c(cc1F)N(C)C(=O)CC2 [Example 27, 7-Fluoro-6-[5-(6-fluoro-2-oxo-2H-pyridin-1-ylmethyl)-4-methyl-pyridin-3-yl]-1-methyl-3,4-dihydro-1H-quinolin-2-one] |

Reference: patent publication US9593107B2, “Dihydroquinoline-2-one derivatives” (Hoffmann-La Roche Inc., priority 2014, dated 2017)
